# Data from patent US20230075521A1, “RESVERATROL PHARMACEUTICAL COMPOSITIONS AND METHODS OF USE THEREOF” (priority 2021, published 2023).
# Several values for one entry are separate records, joined by “and”; a condition that tells them apart may be missing. Identical values can stand only once.
# What was measured:
# [1] = tested on: ERC cytokines and chemokines; test: Entorhinal cortex (ERC) cytokine and chemokine levels (48-Plex ProcartaPlex, Luminex); assay type: in vivo, 3×Tg-AD mouse
# Protocol: At study endpoints (age 15 months for sub-chronic study, age 13 months for long-term study), mice were anaesthetized with isoflurane and blood was collected by transcardial puncture. Blood was stored on ice and then centrifuged at 10,000×g at 4° C. for 10 min to collect serum and stored at −80° C. until use. The brain was then extracted and quickly dissected on ice to collect prefrontal cortex (PFC), hippocampus, entorhinal cortex (ERC), and cerebellum, which were immediately frozen in liquid nitrogen. The samples were stored at −80° C. until processed for RNA or protein extraction. For each mouse, brain regions from one hemisphere were used for RNA preparation and qPCR and sections from the other hemisphere were used for protein work including ELISAs.
# Protein lysates were extracted by sonicating tissue in M-PER Mammalian Protein Extraction Reagent (Thermo Fisher Scientific) supplemented with protease inhibitor (Thermo Fisher Scientific) and phosphatase inhibitor (Thermo Fisher Scientific). Total protein was quantified using Pierce BCA Protein Assay Kit (Thermo Fisher Scientific) and read at 562 nm using EnVision (Perkin Elmer).
# Human Aβ1-42, Aβ1-40, phosphorylated tau Ser 396, phosphorylated tau Thr181, and total tau were measured in brain tissue by enzyme linked immuno-sorbent assay (ELISA; Invitrogen by Thermo) and normalized to total protein. All the kits were used as per the manufacturer's instructions and measured using the EnVision® multimode plate reader (Perkin Elmer). Serum and brain tissue protein extracts were analyzed for cytokine and chemokine levels using the Immune Monitoring 48-Plex Mouse ProcartaPlex™ Panel (Invitrogen by Thermo) according to manufacturer's standard protocol and read using Luminex xMAP (multi-analyte profiling) technology.
# [2] = Rat PK study, resveratrol in plasma at 30 min; assay type: in vivo; settings: male, oral, 50 mg/kg, Sprague-Dawley rats, single dose, 30 min after treatment
# Protocol: For mouse PK studies, male CD-1 mice (Charles River Canada) were used. Animals were food fasted for 4 h prior to dosing and water fasted 1 h prior to dosing. […] At each time point (15 min, 30 min, 1 h, 4 h) 3 mice of each group were terminally bled via cardiac puncture under red light. Blood was collected into sodium-EDTA tubes under red light and spun at […] for 10 min at 6800×g. Plasma was collected and split into amber tubes. Both left and right brain were collected and snap-frozen in liquid nitrogen and stored at […] Drug concentrations were analyzed by liquid chromatography-mass spectrometry (LC-MS/MS) by KDM Laboratories Inc. For rat PK studies, male Sprague-Dawley rats (Charles River Canada) were used. […] Blood was collected under red light from the trunk at 30 min into K3EDTA tubes and centrifuged immediately at 4° C. for 10 min at 6800×g, and plasma collected into amber tubes. Brains were collected and snap-frozen in liquid nitrogen and stored at […] Drug concentration was analyzed by LC-MS/MS.
# [3] = female 3×Tg-AD mice, 50 mg/kg oral, 9 months
# [4] = female 3×Tg-AD mice, 50 mg/kg oral, 9 months, 50 mg/kg
# [5] = male 3×Tg-AD mice, 50 mg/kg oral, 9 months
# [6] = male 3×Tg-AD mice, 50 mg/kg oral, 9 months, 50 mg/kg
smiles,measurement,setting,value
"Oc1ccc(/C=C/c2cc(O)cc(O)c2)cc1 [RSV, (trans-)resveratrol]","IFNg ERC level, change vs vehicle",[1]; [3],-0.64 pg/mL
same,"IL-1b ERC level, change vs vehicle",[1]; [3],-1.12 pg/mL
same,"IL-2 ERC level, change vs vehicle",[1]; [3],18.07 pg/mL
same,"IL-2RA ERC level, change vs vehicle",[1]; [3],-0.95 pg/mL
same,"IL-3 ERC level, change vs vehicle",[1]; [3],-0.34 pg/mL
same,"IL-5 ERC level, change vs vehicle",[1]; [3],-6.60 pg/mL
same,"IL-9 ERC level, change vs vehicle",[1]; [3],7.25 pg/mL
same,"IL- 10 ERC level, change vs vehicle",[1]; [3],0.54 pg/mL
same,"IL-12p70 ERC level, change vs vehicle",[1]; [3],1.75 pg/mL
same,"IL-13 ERC level, change vs vehicle",[1]; [3],1.74 pg/mL
same,"IL-17A ERC level, change vs vehicle",[1]; [3],0.69 pg/mL
same,"IL-22 ERC level, change vs vehicle",[1]; [3],-0.13 pg/mL
same,"IL-25/IL-17 ERC level, change vs vehicle",[1]; [3],-23.30 pg/mL
same,"IL-27 ERC level, change vs vehicle",[1]; [3],-0.87 pg/mL
same,"IL-33 ERC level, change vs vehicle",[1]; [3],-56.09 pg/mL
same,"LIX ERC level, change vs vehicle",[1]; [3],-12.67 pg/mL
same,"M-CSF ERC level, change vs vehicle",[1]; [3],-0.32 pg/mL
same,"MCP-3 ERC level, change vs vehicle",[1]; [3],1.94 pg/mL
same,"MIP-2 ERC level, change vs vehicle",[1]; [3],-2.59 pg/mL
same,"RANTES ERC level, change vs vehicle",[1]; [3],-1.97 pg/mL
same,"TNFa ERC level, change vs vehicle",[1]; [3],-10.12 pg/mL
same,"VEGF-A ERC level, change vs vehicle",[1]; [3],4.80 pg/mL
same,"sRANKL ERC level, change vs vehicle",[1]; [3],0.70 pg/mL
same,"IL-6 ERC level, change vs vehicle",[1]; [4],5.44 ± 2.1 pg/mL and 5.44 pg/mL
same,"IL-7 ERC level, change vs vehicle",[1]; [4],40.12 ± 15.04 pg/mL and 40.12 pg/mL
same,"IL-18 ERC level, change vs vehicle",[1]; [4],-84.91 ± 35.55 pg/mL and -84.91 pg/mL
same,"IL-19 ERC level, change vs vehicle",[1]; [4],105.7 ± 22.58 pg/mL and 105.70 pg/mL
same,"IL-23 ERC level, change vs vehicle",[1]; [4],42.53 ± 10.42 pg/mL and 42.53 pg/mL
same,"IL-28 ERC level, change vs vehicle",[1]; [4],146.9 ± 34.42 pg/mL and 146.90 pg/mL
same,"IP-10 ERC level, change vs vehicle",[1]; [4],21.13 ± 4.32 pg/mL and 21.13 pg/mL
same,"IFNg ERC level, change vs vehicle",[1]; [5],1.51 pg/mL
same,"IL-1b ERC level, change vs vehicle",[1]; [5],0.97 pg/mL
same,"IL-2 ERC level, change vs vehicle",[1]; [5],31.55 pg/mL
same,"IL-3 ERC level, change vs vehicle",[1]; [5],0.18 pg/mL
same,"IL-5 ERC level, change vs vehicle",[1]; [5],3.37 pg/mL
same,"IL-6 ERC level, change vs vehicle",[1]; [5],2.70 pg/mL
same,"IL-7 ERC level, change vs vehicle",[1]; [5],41.08 pg/mL
same,"IL-9 ERC level, change vs vehicle",[1]; [5],19.29 pg/mL
same,"IL-12p70 ERC level, change vs vehicle",[1]; [5],0.61 pg/mL
same,"IL-13 ERC level, change vs vehicle",[1]; [5],5.16 pg/mL
same,"IL-17A ERC level, change vs vehicle",[1]; [5],2.77 pg/mL
same,"IL-18 ERC level, change vs vehicle",[1]; [5],42.33 pg/mL
same,"IL-19 ERC level, change vs vehicle",[1]; [5],104.30 pg/mL
same,"IL-22 ERC level, change vs vehicle",[1]; [5],2.18 pg/mL
same,"IL-23 ERC level, change vs vehicle",[1]; [5],41.51 pg/mL
same,"IL-25/IL-17 ERC level, change vs vehicle",[1]; [5],15.36 pg/mL
same,"IL-27 ERC level, change vs vehicle",[1]; [5],2.75 pg/mL
same,"IL-28 ERC level, change vs vehicle",[1]; [5],130.90 pg/mL
same,"IL-33 ERC level, change vs vehicle",[1]; [5],64.64 pg/mL
same,"IP-10 ERC level, change vs vehicle",[1]; [5],13.80 pg/mL
same,"LIX ERC level, change vs vehicle",[1]; [5],16.39 pg/mL
same,"M-CSF ERC level, change vs vehicle",[1]; [5],0.50 pg/mL
same,"MCP-3 ERC level, change vs vehicle",[1]; [5],0.76 pg/mL
same,"RANTES ERC level, change vs vehicle",[1]; [5],1.40 pg/mL
same,"TNFa ERC level, change vs vehicle",[1]; [5],23.73 pg/mL
same,"VEGF-A ERC level, change vs vehicle",[1]; [5],3.55 pg/mL
same,"sRANKL ERC level, change vs vehicle",[1]; [5],2.59 pg/mL
same,"IL-2RA ERC level, change vs vehicle",[1]; [6],0.77 ± 0.043 pg/mL and 0.77 pg/mL
same,"MIP-2 ERC level, change vs vehicle",[1]; [6],7.51 ± 2.55 pg/mL and 7.51 pg/mL
same,"IL-9 in ERC, increase vs vehicle",[1]; males and females combined,65.4 ± 25.69 pg/mL
same,concentration at 30 min,[2],180 ± 33.6 ng/mL
